SMILES: Clc1ccc(COC(Cn2ccnc2)c2ccc(Cl)cc2Cl)cc1.O=[N+]([O-])O (centres undefined)
- solubility (mole fraction) (in 1,4-dioxane, 288.15 K): 0.000262
- solubility (mole fraction) (in 1,4-dioxane, 293.15 K): 0.000317
- solubility (mole fraction) (in 1,4-dioxane, 298.15 K): 0.000393
- solubility (mole fraction) (in 1,4-dioxane, 303.15 K): 0.000482
- solubility (mole fraction) (in 1,4-dioxane, 308.15 K): 0.000596
- solubility (mole fraction) (in 1,4-dioxane, 313.15 K): 0.000729
- solubility (mole fraction) (in 1,4-dioxane, 318.15 K): 0.000897
- solubility (mole fraction) (in ethanol, 278.15 K): 0.000526
- solubility (mole fraction) (in ethanol, 283.15 K): 0.000656
- solubility (mole fraction) (in ethanol, 288.15 K): 0.000832
- solubility (mole fraction) (in ethanol, 293.15 K): 0.00102
- solubility (mole fraction) (in ethanol, 298.15 K): 0.00125
- solubility (mole fraction) (in ethanol, 303.15 K): 0.00153
- solubility (mole fraction) (in ethanol, 308.15 K): 0.00189
- solubility (mole fraction) (in ethanol, 313.15 K): 0.00228
- solubility (mole fraction) (in ethanol, 318.15 K): 0.00275
- solubility (mole fraction) (in methanol, 278.15 K): 0.0015
- solubility (mole fraction) (in methanol, 283.15 K): 0.00181
- solubility (mole fraction) (in methanol, 288.15 K): 0.00221
- solubility (mole fraction) (in methanol, 293.15 K): 0.00266
- solubility (mole fraction) (in methanol, 298.15 K): 0.00328
- solubility (mole fraction) (in methanol, 303.15 K): 0.00397
- solubility (mole fraction) (in methanol, 308.15 K): 0.00479
- solubility (mole fraction) (in methanol, 313.15 K): 0.00577
- solubility (mole fraction) (in methanol, 318.15 K): 0.00687
- solubility (mole fraction) (in water, 278.15 K): 1.67e-05
- solubility (mole fraction) (in water, 283.15 K): 2.05e-05
- solubility (mole fraction) (in water, 288.15 K): 2.47e-05
- solubility (mole fraction) (in water, 293.15 K): 2.93e-05
- solubility (mole fraction) (in water, 298.15 K): 3.44e-05
- solubility (mole fraction) (in water, 303.15 K): 3.98e-05
- solubility (mole fraction) (in water, 308.15 K): 4.56e-05
- solubility (mole fraction) (in water, 313.15 K): 5.16e-05
- solubility (mole fraction) (in water, 318.15 K): 5.78e-05
